# Source: US6514981B1, “Methods of modulating tyrosine protein kinase function with indolinone compounds” (Sugen, Inc., priority 1998, dated 2003)
# Legend:
# Insulin Receptor = biological target: T1, Insulin Receptor (Homo sapiens, UniProt P06213); test: Insulin receptor phosphorylation assay in H25 cells (ELISA); assay type: cell-based; details: insulin stimulation
# T1 construct: expressed in transfected cells; host or cells: H25 cells (NIH3T3, ATCC No. 1658)
# Description: The following materials and reagents were used to measure phophotyrosine levels on the insulin receptor (indicating insulin receptor tyrosine kinase activity):
# 1. The preferred cell line was an NIH3T3 cell line (ATCC No. 1658) which overexpresses Insulin Receptor (H25 cells);
# 2. Resuspend the cells in fresh DMEM+10% FBS+2mM L-Glutamine, and transfer to 96-well tissue culture plate (Corning, 25806-96) at 20,000 cells/well (100 μL/well). The cells are then incubated for 1 day. Following such incubation, 0.01% serum medium (90/μL) replaces the old media and the cells incubate in 5% CO2 and 37° C. overnight.
# 1. Coat the ELISA plate (Corning 25805-96) with Anti-IR Antibody at 0.5 μg/well in 100 μL PBS at least 2 hours.
# C. Assay Procedures 1. The drugs are tested in serum-free condition. 2. Dilute drug stock (in 100% DMSO) 1:10 with DMEM in 96-well poly-propylene plate, and transfer 10 μL/well of this solution to the cells to achieve final drug dilution 1:100, and final DMSO concentration of 1.0%. Incubate the cells in 5% CO2 at 37° C. for 2 hours.
# 4. After drug incubation for two hours, transfer 10 μL/well of 1 μM insulin in PBS to the cells (Final concentration=100 nM), and incubate at 5% CO2 at 37° C. for 10 minutes.
# 5. […]
# The IC50 values measured in the insulin receptor phosphorylation assay for the compound of formula VI are depicted in Table 7: […]
# EGFR = EGFR (Homo sapiens, UniProt P00533); test: Biochemical EGFR assay (ELISA, A431 cell lysate); parameters: Add 7 μg A431 cell lysate per well (EGFR source); endogenous in cells; host or cells: A431 cell lysate, captured on 05-101 anti-EGFR antibody; details: A431 cell lysate as EGFR source
# Excerpt: The following protocol describes the procedures used to analyze protein tyrosine kinase activity on the EGFR in an Elisa. The procedure also describes the protocol for the initial screening of drugs for inhibition or activation of protein tyrosine kinase activity.
# A431 cells are available from a variety of commercial sources and may be used lysed using conventional methods known to those skilled in the art or as described for lysis of the 3T3 cells in the EGF cellular assay described herein. −80° C., 1 mL aliquots
# 1. Coat Corning 96-well elisa plates with 0.5 μg per well 05-101 antibody. Bring final volume to 100 μL per well with PBS. Coat plates overnight at 4° C.
# 5. Add 7 μg A431 cell lysate per well (EGFR source). Add PBS to final volume of 100 μL per well. Incubate 30 minutes while shaking.
# 7. At this point, drugs or extracts are added to the wells. Dilute drugs/extracts 1:100 (unless specified otherwise) in TBS+10% DMSO in 96-well polypropylene plates. Add 120 μL TBS to ELISA plate containing captured EGFR. […] Incubate plate 30 minutes while shaking.
# 8. […] (150 μL final volume in well with 3 μM ATP/5 mM MnCl2 final concentration in well.) Incubate 5 minutes while shaking vigorously.
# 9. […]
# 17. Read assay on Dynatech MR7000 elisa reader.
# The IC50 values measured in the above assay for the compound of formula VI are depicted in Table 2: […]
# T1 sequence (P06213 28-1382, species assumed): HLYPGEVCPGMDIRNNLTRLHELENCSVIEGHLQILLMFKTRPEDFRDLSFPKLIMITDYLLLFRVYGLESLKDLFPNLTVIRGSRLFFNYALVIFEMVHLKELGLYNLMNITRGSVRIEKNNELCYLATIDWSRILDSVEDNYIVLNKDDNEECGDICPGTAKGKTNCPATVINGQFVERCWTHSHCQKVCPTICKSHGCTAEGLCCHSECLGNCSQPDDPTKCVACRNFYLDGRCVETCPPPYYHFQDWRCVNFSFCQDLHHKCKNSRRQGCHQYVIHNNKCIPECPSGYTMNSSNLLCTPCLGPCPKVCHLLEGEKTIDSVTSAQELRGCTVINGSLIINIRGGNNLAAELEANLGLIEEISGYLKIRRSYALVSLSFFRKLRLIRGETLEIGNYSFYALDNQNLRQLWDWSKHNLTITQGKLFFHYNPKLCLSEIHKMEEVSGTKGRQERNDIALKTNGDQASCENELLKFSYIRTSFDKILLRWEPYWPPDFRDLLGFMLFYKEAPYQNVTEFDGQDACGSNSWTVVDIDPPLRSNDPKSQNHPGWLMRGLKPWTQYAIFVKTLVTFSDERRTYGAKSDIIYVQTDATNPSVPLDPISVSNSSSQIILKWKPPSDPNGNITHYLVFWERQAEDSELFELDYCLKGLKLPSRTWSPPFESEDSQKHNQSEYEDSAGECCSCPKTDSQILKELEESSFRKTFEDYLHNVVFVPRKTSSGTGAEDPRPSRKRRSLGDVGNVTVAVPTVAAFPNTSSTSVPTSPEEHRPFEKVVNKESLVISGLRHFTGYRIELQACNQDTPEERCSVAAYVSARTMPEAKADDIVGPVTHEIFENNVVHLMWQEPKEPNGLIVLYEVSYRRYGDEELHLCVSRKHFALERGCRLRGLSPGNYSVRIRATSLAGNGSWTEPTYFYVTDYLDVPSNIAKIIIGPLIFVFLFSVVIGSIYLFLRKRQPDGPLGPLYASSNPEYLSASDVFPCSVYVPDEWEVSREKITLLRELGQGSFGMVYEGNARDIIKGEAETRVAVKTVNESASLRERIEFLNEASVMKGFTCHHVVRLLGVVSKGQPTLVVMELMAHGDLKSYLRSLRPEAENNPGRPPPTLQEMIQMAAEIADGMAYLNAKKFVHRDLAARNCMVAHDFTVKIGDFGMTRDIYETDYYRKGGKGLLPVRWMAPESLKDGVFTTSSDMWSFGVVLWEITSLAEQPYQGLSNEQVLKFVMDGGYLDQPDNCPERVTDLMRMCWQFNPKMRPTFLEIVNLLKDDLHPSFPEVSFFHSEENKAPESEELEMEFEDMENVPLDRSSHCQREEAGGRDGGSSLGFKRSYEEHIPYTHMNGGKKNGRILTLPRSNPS
# Chain of EGFR (P00533 25-1210): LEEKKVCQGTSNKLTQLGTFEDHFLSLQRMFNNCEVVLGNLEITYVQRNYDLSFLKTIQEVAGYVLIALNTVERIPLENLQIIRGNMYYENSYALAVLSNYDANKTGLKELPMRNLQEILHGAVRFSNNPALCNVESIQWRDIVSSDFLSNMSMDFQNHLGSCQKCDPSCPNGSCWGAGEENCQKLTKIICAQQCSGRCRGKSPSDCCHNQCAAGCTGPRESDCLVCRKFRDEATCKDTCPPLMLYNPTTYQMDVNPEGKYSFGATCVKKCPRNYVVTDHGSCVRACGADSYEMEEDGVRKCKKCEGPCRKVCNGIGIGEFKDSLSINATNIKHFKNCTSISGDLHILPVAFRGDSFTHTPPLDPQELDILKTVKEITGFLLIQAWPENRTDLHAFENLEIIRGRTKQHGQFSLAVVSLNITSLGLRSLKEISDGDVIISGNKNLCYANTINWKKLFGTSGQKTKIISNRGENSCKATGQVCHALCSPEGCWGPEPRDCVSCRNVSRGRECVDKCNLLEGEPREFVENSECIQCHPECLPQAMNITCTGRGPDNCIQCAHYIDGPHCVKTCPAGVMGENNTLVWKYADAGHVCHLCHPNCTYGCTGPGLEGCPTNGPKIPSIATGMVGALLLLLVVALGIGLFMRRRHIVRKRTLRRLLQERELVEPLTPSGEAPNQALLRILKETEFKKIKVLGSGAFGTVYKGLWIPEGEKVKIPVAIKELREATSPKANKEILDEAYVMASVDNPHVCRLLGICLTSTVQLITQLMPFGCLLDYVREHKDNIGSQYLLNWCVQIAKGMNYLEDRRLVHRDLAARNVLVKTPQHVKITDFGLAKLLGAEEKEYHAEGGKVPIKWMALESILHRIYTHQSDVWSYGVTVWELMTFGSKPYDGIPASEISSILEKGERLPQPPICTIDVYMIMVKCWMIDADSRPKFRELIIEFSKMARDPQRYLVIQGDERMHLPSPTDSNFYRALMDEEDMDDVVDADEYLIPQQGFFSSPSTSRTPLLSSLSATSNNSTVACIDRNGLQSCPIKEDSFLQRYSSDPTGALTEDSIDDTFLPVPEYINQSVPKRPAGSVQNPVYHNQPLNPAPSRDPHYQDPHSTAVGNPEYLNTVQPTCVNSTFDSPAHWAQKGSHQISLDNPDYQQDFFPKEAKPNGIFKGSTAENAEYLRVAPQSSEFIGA
smiles,measurement,setting,value
Cc1cc(/C=C2/C(=O)Nc3ccccc32)c(C)c2c1[nH]c1ccccc12 [VI],IC50,Insulin Receptor,21.9 µM
same,IC50,EGFR,> 50 µM
